Test results taken from patent US6008395A, “Platinum (IV) complex, production process thereof and carcinostatic agent containing the same” (priority 1995, dated 1999).
Where two headings read alike, the source gives them in different places.

Legend:
[1] = Behaviour in strongly acidic gastric juice (1 N HCl, pH 0.1); format: physicochemical; conditions: orally administered
L 1210 [2] = experiment: (Oral) carcinostatic effect L 1210, ip-po; format: in vivo, CDF1 mouse; conditions: Q02D×05, suspension in olive oil, 140% or more judged effective
Experimental: po: On the day 0, L 1210 (10^5 cells/mouse) was transplanted into the abdominal cavity of each CDF1 mouse, and each of the platinum complexes was orally administered on the day 1, day 3, day 5, day 7 and day 9 (Q02D×05), or on the day 1 to day 5 (Q01D×05). The oral administration was carried out with a 10, 7.5 or 5 times higher dose than the optimum amount of each platinum complex by ip (T/C % of ip; 100 mg/kg, 75 mg/kg or 50 mg/kg, respectively). A value of 140% or more was judged effective.
(Oral) carcinostatic effect L 1210, ip-po, every two days Q02D×05
L 1210 (10^5 cells/mouse); one group=5 CDF1 mice; Suspension in olive oil was administered into the stomach through a catheter.

[3] = In vitro reduction by an ascorbic acid salt, half life; format: physicochemical; conditions: 50 μM complex, pH 7.5 (50 mM HEPES-NaOH), 37° C., dark; for Half life (reduction), 5 mM: 5 mM ascorbic acid salt; for Half life (reduction), 100 mM: 100 mM ascorbic acid salt
Experimental: Test results of the in vitro reduction of the thus obtained complexes by an ascorbic acid salt are shown below in terms of half life.
The measurement was carried out at a complex concentration of 50 μM, pH 7.5 (50 mM HEPES-NaOH buffer), at 37° C. in the dark.

[4] = Stability in an aqueous solution of hydrochloric acid, half life; format: physicochemical; conditions: 37° C., 50 μM complex, in the dark
Experimental: Stability of each of the thus obtained complexes in an aqueous solution of hydrochloric acid at 37° C. is shown below in terms of its half life.
The measurement was carried out at a complex concentration of 50 μM at 37° C. in the dark.

L 1210 [5] = format: in vivo, CDF1 mouse; conditions: days 1, 5 and 9; for T/C %: 125 or more judged effective
Experimental: ip: On the day 0, L 1210 (10^5 cells/mouse) was transplanted into the abdominal cavity of each CDF1 mouse, and each of the platinum complexes was intraperitoneally administered on the day 1, day 5 and day 9 (Q04D×03). Using 5 animals in one group, T/C % (T: treated, C: control) is calculated from survived days. A T/C % value of 125 or more was judged effective. The number of survived (or tumor bearing) animals is shown as n/5. A total of 10 mice were used in the control.
Carcinostatic effect ip--ip, L 1210, three administrations on days 1, 5 and 9
L 1210 (10^5 cells/mouse), one group=5 CDF1 mice, ip administration on the days 1, 5 and 9.

[6] = clinical trial; cited from earlier work

| Structure (SMILES) | one carboxylic acid substituted by Cl [1] | T/C % (L 1210 [2]; 2.5 mg/kg po) [%] | T/C % (L 1210 [2]; 5 mg/kg po) [%] | T/C % (L 1210 [2]; 10 mg/kg po) [%] | T/C % (L 1210 [2]; 15 mg/kg po) [%] | Half life (reduction), 5 mM [3] [h] | Half life (reduction), 100 mM [3] [min] | Half life, 0.05 M HCl [4] | Half life, 1 M HCl [4] [h] | T/C % (L 1210 [5]; 25 mg/kg ip) [%] | number of survived (or tumor bearing) animals (n/5) (L 1210 [5]; 50 mg/kg ip) | T/C % (L 1210 [5]; 50 mg/kg ip) [%] | T/C % (L 1210 [5]; 100 mg/kg ip) [%] | T/C % (L 1210 [5]; 12.5 mg/kg ip) [%] | number of survived (or tumor bearing) animals (n/5) (L 1210 [5]; 25 mg/kg ip) | clinical development / side effects [6] |
| --- | --- | --- | --- | --- | --- | --- | --- | --- | --- | --- | --- | --- | --- | --- | --- | --- |
| CCCCCC(=O)[O-].CCCCCC(=O)[O-].NC1CCCCC1N.O=C([O-])C(=O)[O-].[Pt+4] [Complex C6-ORP, t,c,c-[Pt (OCOC5 H11)2 (ox) (1R,2R-dach)]] | gradually substituted by Cl | – | – | – | – | – | – | – | – | – | – | – | – | – | – | – |
| CCCCC(=O)[O-].NC1CCCCC1N.O=C([O-])C(=O)[O-].[Cl-].[Pt+4] [C5--OHP · Cl, t,t,c,c-[PtCl(OCOC4 H9)(ox)(1R,2R-dach)]] | – | 140 | 214 | 143 | 60 | 0.8 | < 6 | > 50 h | 7.4 | 168 | 4/5 | 283 | 88 | – | – | – |
| CCCCCCC(=O)[O-].NC1CCCCC1N.O=C([O-])C(=O)[O-].[Cl-].[Pt+4] [C7--OHP · Cl, [PtCl(OCOC6 H13) (oxalato) (1R,2R-dach)]] | – | 117 | 129 | 151 | – | 1.6 | < 6 | N.D. (significant decrease in concentration was not observed) | 11.3 | 137 | – | 176 | – | 122 | – | – |
| CCCCC(=O)[O-].NC1CCCCC1N.O=C([O-])C(=O)[O-].[Br-].[Pt+4] [C5--OHP · Br, t,t,c,c-[PtBr(OCOC4 H9)(ox)(1R,2R-dach)]] | – | – | 160 | 163 | 73 | – | – | – | – | 395 | – | 107 | – | – | 4/5 | – |
| CCCCC(=O)O.CCCCC(=O)O.N[C@@H]1CCCC[C@H]1N.O=C(O)C(=O)O.[Pt] [Complex C5-OHP, t,c,c-[Pt (OCOC4 H9)2 (ox) (1R,2R-dach)]] | gradually substituted by Cl | – | – | – | – | – | – | – | – | – | – | – | – | – | – | – |
| CCCCCC(=O)[O-].NC1CCCCC1N.O=C([O-])C(=O)[O-].[Cl-].[Pt+4] [C6--OHP · Cl, [PtCl (OCOC5 H11) (oxalato) (1R,2R-dach)]] | – | 143 | 191 | 168 | 98 | 1.2 | < 6 | N.D. (significant decrease in concentration was not observed) | 8.9 | 173 | 1/5 | 280 | 80 | – | – | – |
| CCCCCC(=O)[O-].NC1CCCCC1N.O=C([O-])C(=O)[O-].[Br-].[Pt+4] [C6--OHP · Br] | – | – | 173 | 180 | 88 | – | – | – | – | 373 | – | 96 | 69 | – | 4/5 | – |
| CCCC(=O)[O][Pt]12([O]C(=O)CCC)([NH]C3CCCCC3[NH]1)[O]C(=O)C(=O)[O]2 [Complex C4-OHP, t,c,c-[Pt (OCOC3 H7)2 (ox) (1R,2R-dach)]] | gradually substituted by Cl | – | – | – | – | – | – | – | – | – | – | – | – | – | – | – |
| N[C@@H]1CCCC[C@H]1N.[Cl][Pt+2]([Cl])([Cl])[Cl] [tetraplatin] | – | – | – | – | – | – | – | – | – | – | – | – | – | – | – | clinical development has been suspended due to the side effects, such as toxicity |
| CCCC(=O)[O-].NC1CCCCC1N.O=C([O-])C(=O)[O-].[Cl-].[Pt+4] [C4--OHP · Cl, [PtCl(OCOC3 H7) (oxalato) (lR,2R-dach)]] | – | – | – | – | – | 0.6 | < 6 | > 50 h | 6.1 | 145 | – | 195 | 63 | 130 | – | – |
